Here are results for 21 molecules from patent EP3623369A1, “NOVEL MORPHOLINYL AMINE COMPOUNDS FOR THE TREATMENT OF AUTOIMMUNE DISEASE” (F. Hoffmann-La Roche AG, priority 2018, dated 2020).

The assay addresses T1, human TLR8 (Homo sapiens, UniProt Q9NR97).
T1 sequence (Q9NR97 27-1041): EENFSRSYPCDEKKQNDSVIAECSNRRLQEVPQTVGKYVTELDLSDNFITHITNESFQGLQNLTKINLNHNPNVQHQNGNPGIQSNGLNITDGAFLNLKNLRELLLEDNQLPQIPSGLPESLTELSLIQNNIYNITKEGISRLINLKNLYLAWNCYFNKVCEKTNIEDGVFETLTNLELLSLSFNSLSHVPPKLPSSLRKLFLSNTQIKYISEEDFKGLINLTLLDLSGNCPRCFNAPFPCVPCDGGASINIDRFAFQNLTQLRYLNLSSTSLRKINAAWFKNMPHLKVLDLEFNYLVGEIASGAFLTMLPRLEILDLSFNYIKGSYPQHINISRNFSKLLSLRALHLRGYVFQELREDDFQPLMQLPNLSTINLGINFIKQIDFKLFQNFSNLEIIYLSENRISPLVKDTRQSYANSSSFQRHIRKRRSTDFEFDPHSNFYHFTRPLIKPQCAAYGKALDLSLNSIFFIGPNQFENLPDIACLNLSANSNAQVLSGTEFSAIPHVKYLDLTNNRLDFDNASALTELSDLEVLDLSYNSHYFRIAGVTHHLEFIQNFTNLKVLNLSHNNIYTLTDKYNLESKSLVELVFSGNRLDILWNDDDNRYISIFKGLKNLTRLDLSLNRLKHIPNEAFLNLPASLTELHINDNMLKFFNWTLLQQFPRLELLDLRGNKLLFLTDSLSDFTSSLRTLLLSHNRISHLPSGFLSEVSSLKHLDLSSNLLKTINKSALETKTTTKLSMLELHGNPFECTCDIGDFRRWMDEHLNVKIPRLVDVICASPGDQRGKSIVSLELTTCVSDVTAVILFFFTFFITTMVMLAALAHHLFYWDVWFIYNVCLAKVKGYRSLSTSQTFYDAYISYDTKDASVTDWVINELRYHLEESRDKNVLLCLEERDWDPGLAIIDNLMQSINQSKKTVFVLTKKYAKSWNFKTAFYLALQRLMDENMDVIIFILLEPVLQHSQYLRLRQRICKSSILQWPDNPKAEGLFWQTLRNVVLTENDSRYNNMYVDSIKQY
Briefly: HEK293-Blue-hTLR-8 cells assay (SEAP reporter, R848 stimulation). It counts as cell-based. As to conditions: HEK293-Blue-hTLR8 cells, R848, 20 hrs; 0.003 is the lowest tested concentration; read-out: HEK/hTLR8 IC50. On the procedure:
The following tests were carried out in order to determine the activity of the compounds of formula (I) or (Ia) in HEK293-Blue-hTLR-7/8/9 cells assay.
HEK293-Blue-hTLR-8 cells assay:
A stable HEK293-Blue-hTLR-8 cell line was purchased from InvivoGen (Cat.#: hkb-htlr8, San Diego, California, USA). These cells were originally designed for studying the stimulation of human TLR8 by monitoring the activation of NF-κB. A SEAP (secreted embryonic alkaline phosphatase) reporter gene was placed under the control of the IFN-β minimal promoter fused to five NF-κB and AP-1-binding sites. The SEAP was induced by activating NF-κB and AP-1 via stimulating HEK-Blue hTLR8 cells with TLR8 ligands. Therefore the reporter expression was declined by TLR8 antagonist under the stimulation of a ligand, such as R848, for incubation of 20 hrs. The cell culture supernatant SEAP reporter activity was determined using QUANTI-Blue™ kit (Cat.#: rep-qb1, Invivogen, San Diego, Ca, USA) at a wavelength of 640 nm, a detection medium that turns purple or blue in the presence of alkaline phosphatase.
HEK293-Blue-hTLR8 cells were incubated at a density of 250,000∼450,000 cells/mL in a volume of 170 µL in a 96-well plate in Dulbecco's Modified Eagle's medium (DMEM) containing 4.5 g/L glucose, 50 U/mL penicillin, […], […], 2 mM L-glutamine, 10% (v/v) heat-inactivated fetal bovine serum with addition of 20 µL test compound in a serial dilution in the presence of final DMSO at 1% and 10 µL of 60uM R848 in above DMEM, perform incubation under 37 °C in a CO2 incubator for 20 hrs. Then 20 µL of the supernatant from each well was incubated with 180 µL Quanti-blue substrate solution at 37°C for 2 hrs and the absorbance was read at 620∼655 nm using a spectrophotometer. The signalling pathway that TLR8 activation leads to downstream NF-κB activation has been widely accepted, and therefore similar reporter assay was modified for evaluating TLR8 antagonist.
Regarding `C[C@@H]1CN(c2ccc(C#N)c3ncccc23)C[C@H](CN2Cc3ccc(N4C5CCC4CNC5)cc3C2)O1` [Example 43, 5-[(2S,6R)-2-[[5-(3,8-diazabicyclo[3.2.1]octan-8-yl)isoindolin-2-yl]methyl]-6-methyl-morpholin-4-yl]quinoline-8-carbonitrile], the IC50 turned out to be 12 nM.

With `C[C@@H]1CN(c2ccc(Cl)c3nccnc23)C[C@H](CN2Cc3ccc(N4CCNCC4)cc3C2)O1` [Example 33, (2R,6S)-4-(8-chloroquinoxalin-5-yl)-2-methyl-6-[(5-piperazin-1-ylisoindolin-2-yl)methyl]morpholine], the IC50 was 5 nM.

Turning to `C[C@@H]1CN(c2ccc(C#N)c3ncccc23)C[C@H](CN2Cc3ccc(N4CCNCC4)nc3C2)O1` [Example 80, 5-[(2R,6S)-2-methyl-6-[(2-piperazin-1-yl-5,7-dihydropyrrolo[3,4-b]pyridin-6-yl)methyl]morpholin-4-yl]quinoline-8-carbonitrile], the IC50 is less than 3 nM.

Regarding `COCCN1CCN(c2ccc3c(c2)CN(C[C@H]2CN(c4ccc(C#N)c5nccnc45)C[C@@H](C)O2)C3)CC1` [Example 37, 8-[(2S,6R)-2-[[5-[4-(2-methoxyethyl)piperazin-1-yl]isoindolin-2-yl]methyl]-6-methyl-morpholin-4-yl]quinoxaline-5-carbonitrile], the IC50 was 9 nM.

Take “5-[(2S,6R)-2-[[5-[3-(hydroxymethyl)piperazin-1-yl]isoindolin-2-yl]methyl]-6-methyl-morpholin-4-yl]quinoline-8-carbonitrile [Example 85]”: the IC50 came out at 17 nM.

Consider `CC1CN(c2ccc3c(c2)CN(C[C@H]2CN(c4ccc(C#N)c5nccnc45)C[C@@H](C)O2)C3)CCN1` (stereo partly drawn) [Example 36, 8-[(2R,6S)-2-methyl-6-[[5-(3-methylpiperazin-1-yl)isoindolin-2-yl]methyl]morpholin-4-yl]quinoxaline-5-carbonitrile], for which the IC50 is less than 3 nM.

Take `C[C@@H]1CN(c2ccc(C#N)n3nccc23)C[C@H](CN2Cc3ccc(N4CCNCC4)cc3C2)O1` [Example 4, 4-[(2R,6S)-2-methyl-6-[(5-piperazin-1-ylisoindolin-2-yl)methyl]morpholin-4-yl]pyrazolo[1,5-a]pyridine-7-carbonitrile]: the IC50 turned out to be 57 nM.

As for `C[C@@H]1CN(c2ccc3c(c2)CN(C[C@H]2CN(c4ccc(C#N)c5ncccc45)C[C@@H](C)O2)C3)CCN1` [Example 62, 5-[(2R,6S)-2-methyl-6-[[5-[(3R)-3-methylpiperazin-1-yl]isoindolin-2-yl]methyl]morpholin-4-yl] quinoline-8-carbonitrile], the IC50 worked out at 5 nM.

Take `C[C@@H]1CN(c2ccc(C#N)c3nccnc23)C[C@H](CN2Cc3ccc(N4C5CCC4CNC5)cc3C2)O1` [Example 41, 8-[(2S,6R)-2-[[5-(3,8-diazabicyclo[3.2.1]octan-8-yl)isoindolin-2-yl]methyl]-6-methyl-morpholin-4-yl]quinoxaline-5-carbonitrile]: the IC50 worked out at 9 nM.

With `C[C@@H]1CN(c2ccc(C#N)c3ncccc23)C[C@H](CN2CCc3cc(N4CCNCC4)ncc3C2)O1` [Example 70, 5-[(2R,6S)-2-methyl-6-[(6-piperazin-1-yl-3,4-dihydro-1H-2,7-naphthyridin-2-yl)methyl]morpholin-4-yl]quinoline-8-carbonitrile], the IC50 is less than 3 nM.

On to `C[C@@H]1CN(c2ccc(C#N)n3ncc(F)c23)C[C@H](CN2Cc3cc(N4CCNCC4)cnc3C2)O1` [Example 29, 3-fluoro-4-[(2R,6S)-2-methyl-6-[(3-piperazin-1-yl-5,7-dihydropyrrolo[3,4-b]pyridin-6-yl)methyl]morpholin-4-yl]pyrazolo[1,5-a]pyridine-7-carbonitrile], for which the IC50 was 14 nM.

On to `C[C@@H]1CN(c2ccc(C#N)n3nccc23)C[C@H](CNCc2ccc(N3CCNCC3)cc2)O1` [Example 16, 4-[(2R,6S)-2-methyl-6-[[(4-piperazin-1-ylphenyl)methylamino]methyl]morpholin-4-yl]pyrazolo[1,5-a]pyridine-7-carbonitrile], for which the IC50 came to 16 nM.

As to `C[C@@H]1CN(c2ccc(C#N)c3ncccc23)C[C@H](CN2Cc3cnc(N4CCNCC4)cc3C2)O1` [Example 61, 5-[(2R,6S)-2-methyl-6-[(6-piperazin-1-yl-1,3-dihydropyrrolo[3,4-c]pyridin-2-yl)methyl]morpholin-4-yl]quinoline-8-carbonitrile], the IC50 is less than 3 nM.

`C[C@@H]1CN(c2ccc(C#N)c3ncccc23)C[C@H](CN2Cc3ccc(N4CC5CCC(C4)N5)cc3C2)O1` [Example 42, 5-[(2S,6R)-2-[[5-(3,8-diazabicyclo[3.2.1]octan-3-yl)isoindolin-2-yl]methyl]-6-methyl-morpholin-4-yl]quinoline-8-carbonitrile]: the IC50 worked out at 13 nM.

On to `C[C@@H]1CN(c2ccc(C#N)c3ncccc23)C[C@H](CN2CCc3cc(N4CCNCC4)ccc3C2)O1` [Example 19, 5-[(2R,6S)-2-methyl-6-[(6-piperazin-1-yl-3,4-dihydro-1H-isoquinolin-2-yl)methyl]morpholin-4-yl]quinoline-8-carbonitrile], for which the IC50 is 6 nM.

For the molecule “3-fluoro-4-[(2R,6S)-2-methyl-6-[(5-piperazin-1-ylisoindolin-2-yl)methyl]morpholin-4-yl]pyrazolo[1,5-a]pyridine-7-carbonitrile [Example 7]”, the IC50 is 13 nM.

Take `COC(=O)C1CN(c2ccc3c(c2)CN(C[C@H]2CN(c4ccc(C#N)c5ncccc45)C[C@@H](C)O2)C3)CCN1` (stereo partly drawn) [Example 67, Methyl 4-[2-[[(2S,6R)-4-(8-cyano-5-quinolyl)-6-methyl-morpholin-2-yl]methyl]isoindolin-5-yl] piperazine-2-carboxylate]: the IC50 worked out at 36 nM.

In the case of `C[C@@H]1CN(c2ccc(C#N)c3ncccc23)C[C@H](CN2Cc3cc(N4CCNCC4)cnc3C2)O1` [Example 20, 5-[(2R,6S)-2-methyl-6-[(3-piperazin-1-yl-5,7-dihydropyrrolo[3,4-b]pyridin-6-yl)methyl]morpholin-4-yl]quinoline-8-carbonitrile], the IC50 was 4 nM.

`C[C@@H]1CN(c2ccc(C#N)c3ncccc23)C[C@H](CN2Cc3cnc(N4CCNCC4)nc3C2)O1` [Example 63, 5-[(2R,6S)-2-methyl-6-[(2-piperazin-1-yl-5,7-dihydropyrrolo[3,4-d]pyrimidin-6-yl)methyl]morpholin-4-yl]quinoline-8-carbonitrile]: the IC50 was less than 3 nM.

On to `C[C@@H]1CN(c2ccc(C#N)n3nccc23)C[C@H](CN2Cc3ccc(C4CCNCC4)cc3C2)O1` [Example 8, 4-[(2R,6S)-2-methyl-6-[[5-(4-piperidyl)isoindolin-2-yl]methyl]morpholin-4-yl]pyrazolo[1,5-a]pyridine-7-carbonitrile], for which the IC50 amounted to 79 nM.

Take `C[C@@H]1CN(c2ccc(C#N)n3nccc23)C[C@H](CN2CCc3cnccc3C2)O1` [Example R1, 4-[(2S,6R)-2-(3,4-dihydro-1H-2,6-naphthyridin-2-ylmethyl)-6-methyl-morpholin-4-yl]pyrazolo[1,5-a]pyridine-7-carbonitrile, reference compound]: the IC50 came out at 118 nM.
